Assay results taken from patent US8796256B2 (Janssen Pharmaceutica NV, priority 2010, dated 2014).

Target: T1, ERR1 (also known as ERR-α or ERR-1) (Homo sapiens, UniProt P11474)
T1 sequence (P11474 193-421 limits assumed): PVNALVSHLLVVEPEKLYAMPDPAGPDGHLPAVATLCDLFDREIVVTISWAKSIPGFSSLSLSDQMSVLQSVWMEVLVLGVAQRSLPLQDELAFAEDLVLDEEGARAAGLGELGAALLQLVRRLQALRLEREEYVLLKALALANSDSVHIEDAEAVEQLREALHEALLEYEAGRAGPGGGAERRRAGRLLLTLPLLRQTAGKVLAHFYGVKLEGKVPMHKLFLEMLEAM
Assay: TR-FRET assay (disruption of co-activator peptide binding to ERR1 LBD)
Format: biochemical
Conditions: 6 nM 6His-ERR1LBD, 6 nM GST-SRC-2 peptide; average of 3 independent experiments
Protocol: Time-Resolved Fluorescence Resonance Energy Transfer (TR-FRET) experiments were performed to examine the functional response of ERR1 (also known as ERR-α or ERR-1) ligands. The TR-FRET assay described herein relied on the conformation of ERR1 for binding to a co-activator peptide: when a test compound binds to ERR1 and alters its conformation, it can disrupt the binding of the co-activator peptide. The components of this homogeneous secondary assay included: the ^6His-tagged-ERR1LBD, a GST-labeled-hSRC2 co-activator polypeptide and a fluorescent donor/acceptor pair from CIS bio international htrf/bioassays (Bedford, Mass.) using both an α-GST Europium (Eu) Cryptate label and an α^6His-XL665 (allophycocyanin) fluorophore.
For TR-FRET measurements, the reaction was buffered in 25 mM Tris pH 8, 2.5 mM Hepes, 20 mM KCl, 1 mM DTT, and 0.05 mg/mL BSA (delipidated). The final concentrations of reagents were 6 nM of ERR1LBD, 6 nM GST-SRC-2 peptide, 30 nM Eu cryptate, and 7.5 nM a^6His-XL665. Reactions were allowed to reach equilibrium at 25° C. for 4-18 h before collecting data on the Analyst from LJL Biosystems (Molecular Devices Sunnyvale, Calif.). […] Dose response curves were fitted using a hyperbolic equation and the data reported is the average of 3 independent experiments.

Compound | EC50 [nM]
O=C(O)CN1C(=O)S/C(=C\c2ccc3c(cnn3Cc3ccc(Cl)cc3C(F)(F)F)c2F)C1=O [Compound 347, [(5Z)-5-({1-[4-Chloro-2-(trifluoromethyl)benzyl]-4-fluoro-1H-indazol-5-yl}methylidene)-2,4-dioxo-1,3-thiazolidin-3-yl]acetic acid] | 116
CCN1CCC(N2C(=O)S/C(=C\c3ccc4c(cnn4Cc4ccc(OC)cc4C(F)(F)F)c3)C2=O)CC1 [Compound 28, (5Z)-3-(1-Ethylpiperidin-4-yl)-5-({1-[4-methoxy-2-(trifluoromethyl)benzyl]-1H-indazol-5-yl}methylidene)-1,3-thiazolidine-2,4-dione] | 14
O=C1S/C(=C\c2ccc3c(cnn3Cc3ccc(Cl)cc3C(F)(F)F)c2)C(=O)N1Cc1ccccn1 [Compound 137, (5Z)-5-({1-[4-Chloro-2-(trifluoromethyl)benzyl]-1H-indazol-5-yl}methylidene)-3-(pyridin-2-ylmethyl)-1,3-thiazolidine-2,4-dione] | 66
NS(=O)(=O)NCCN1C(=O)S/C(=C\c2ccc3c(cnn3Cc3ccc(Cl)cc3C(F)(F)F)c2)C1=O [Compound 50, N-{2-[(5Z)-5-({1-[4-Chloro-2-(trifluoromethyl)benzyl]-1H-indazol-5-yl}methylidene)-2,4-dioxo-1,3-thiazolidin-3-yl]ethyl}sulfamide] | 40
O=C1S/C(=C\c2ccc3c(cnn3Cc3ccc(Cl)cc3C(F)(F)F)c2)C(=O)N1CC1(F)CCNCC1 [Compound 303, (5Z)-5-({1-[4-Chloro-2-(trifluoromethyl)benzyl]-1H-indazol-5-yl}methylidene)-3-[(4-fluoropiperidin-4-yl)methyl]-1,3-thiazolidine-2,4-dione] | 26
N[C@H]1CC[C@H](N2C(=O)S/C(=C\c3ccc4c(cnn4Cc4ccc(Cl)cc4C(F)(F)F)c3)C2=O)CC1 [Compound 176, (5Z)-3-(trans-4-Aminocyclohexyl)-5-({1-[4-chloro-2-(trifluoromethyl)benzyl]-1H-indazol-5-yl}methylidene)-1,3-thiazolidine-2,4-dione] | 58
O=C1S/C(=C\c2ccc3c(cnn3Cc3ccc(Cl)cc3C(F)(F)F)c2)C(=O)N1C1CNC1 [Compound 102, (5Z)-3-Azetidin-3-yl-5-({1-[4-chloro-2-(trifluoromethyl)benzyl]-1H-indazol-5-yl}methylidene)-1,3-thiazolidine-2,4-dione] | 37
COc1ccc(Cn2ncc3cc(/C=C4\SC(=O)N(CCN5CCCCC5)C4=O)ccc32)c(C(F)(F)F)c1 [Compound 11, (5Z)-5-[(1-{[4-(Methyloxy)-2-(trifluoromethyl)phenyl]methyl}-1H-indazol-5-yl)methylidene]-3-(2-piperidin-1-ylethyl)-1,3-thiazolidine-2,4-dione] | 27
COCCN1C(=O)S/C(=C\c2ccc3c(cnn3Cc3ccc(Cl)cc3C(F)(F)F)c2)C1=O [Compound 123, (5Z)-5-({1-[4-Chloro-2-(trifluoromethyl)benzyl]-1H-indazol-5-yl}methylidene)-3-(2-methoxyethyl)-1,3-thiazolidine-2,4-dione] | 45
O=C1S/C(=C\c2ccc3c(ccn3Cc3ccc(F)cc3C(F)(F)F)c2)C(=O)N1CCN1CCOCC1 [Compound 249, (5Z)-5-[(1-{[4-Fluoro-2-(trifluoromethyl)phenyl]methyl}-1H-indol-5-yl)methylidene]-3-(2-morpholin-4-ylethyl)-1,3-thiazolidine-2,4-dione] | 350
O=C1S/C(=C\c2ccc3c(c2)nnn3Cc2ccc(Cl)cc2C(F)(F)F)C(=O)N1C[C@H]1COCCN1 [Compound 267, (5Z)-5-({1-[4-Chloro-2-(trifluoromethyl)benzyl]-1H-benzotriazol-5-yl}methylidene)-3-[(3S)-morpholin-3-ylmethyl]-1,3-thiazolidine-2,4-dione] | 11
Cn1cnc(CN2C(=O)S/C(=C\c3ccc4c(cnn4Cc4ccc(Cl)cc4C(F)(F)F)c3)C2=O)c1 [Compound 402, (5Z)-5-({1-[4-Chloro-2-(trifluoromethyl)benzyl]-1H-indazol-5-yl}methylidene)-3-[(1-methyl-1H-imidazol-4-yl)methyl]-1,3-thiazolidine-2,4-dione] | 48
O=C1S/C(=C\c2ccc3c(cnn3Cc3ccc(C(F)(F)F)cc3C(F)(F)F)c2)C(=O)N1C[C@@H]1COCCN1 [Compound 197, (5Z)-5-({1-[2,4-Bis(trifluoromethyl)benzyl]-1H-indazol-5-yl}methylidene)-3-[(3R)-morpholin-3-ylmethyl]-1,3-thiazolidine-2,4-dione] | 65
COc1ccc(Cn2nc(C)c3cc(/C=C4\SC(=O)N(CCN5CCOCC5)C4=O)ccc32)c(C(F)(F)F)c1 [Compound 20, (5Z)-5-({1-[4-Methoxy-2-(trifluoromethyl)benzyl]-3-methyl-1H-indazol-5-yl}methylidene)-3-(2-morpholin-4-ylethyl)-1,3-thiazolidine-2,4-dione] | 14
O=C1S/C(=C\c2ccc3c(cnn3Cc3ccc(C(F)(F)F)cc3C(F)(F)F)c2)C(=O)N1O [Compound 291, (5Z)-5-({1-[2,4-Bis(trifluoromethyl)benzyl]-1H-indazol-5-yl}methylidene)-3-hydroxy-1,3-thiazolidine-2,4-dione] | 47
N=C(N)NOCCN1C(=O)S/C(=C\c2ccc3c(cnn3Cc3ccc(C(F)(F)F)cc3C(F)(F)F)c2)C1=O [Compound 103, 1-{2-[(5Z)-5-({1-[2,4-Bis(trifluoromethyl)benzyl]-1H-indazol-5-yl}methylidene)-2,4-dioxo-1,3-thiazolidin-3-yl]ethoxy}guanidine] | 43
O=C1S/C(=C\c2ccc3c(cnn3Cc3ccc(Cl)cc3C(F)(F)F)c2)C(=O)N1CCNS(=O)(=O)c1ccc(C(F)(F)F)cc1 [Compound 392, N-{2-[(5Z)-5-({1-[4-Chloro-2-(trifluoromethyl)benzyl]-1H-indazol-5-yl}methylidene)-2,4-dioxo-1,3-thiazolidin-3-yl]ethyl}-4-(trifluoromethyl) benzenesulfonamide] | 215
CS(=O)(=O)NN1C(=O)S/C(=C\c2ccc3c(cnn3Cc3ccc(C#N)cc3C(F)(F)F)c2)C1=O [Compound 362, N-[(5Z)-5-({1-[4-Cyano-2-(trifluoromethyl)benzyl]-1H-indazol-5-yl}methylidene)-2,4-dioxo-1,3-thiazolidin-3-yl]methanesulfonamide] | 308
CC[C@H](N)CN1C(=O)S/C(=C\c2ccc3c(cnn3Cc3ccc(Cl)cc3C(F)(F)F)c2)C1=O [Compound 154, 3-[(2S)-2-Aminobutyl]-(5Z)-5-({1-[4-chloro-2-(trifluoromethyl)benzyl]-1H-indazol-5-yl}methylidene)-1,3-thiazolidine-2,4-dione] | 17
O=C(O)C1CC(N2C(=O)S/C(=C\c3ccc4c(cnn4Cc4ccc(C(F)(F)F)cc4C(F)(F)F)c3)C2=O)C1 (stereo not shown) [Compound 70, 3-[(5Z)-5-({1-[2,4-Bis(trifluoromethyl)benzyl]-1H-indazol-5-yl}methylidene)-2,4-dioxo-1,3-thiazolidin-3-yl]cyclobutanecarboxylic acid] | 48
CN1C[C@@H](F)[C@H](N2C(=O)S/C(=C\c3ccc4c(cnn4Cc4ccc(Cl)cc4C(F)(F)F)c3)C2=O)C1 (relative stereo) [Compound 319, (5Z)-5-({1-[4-Chloro-2-(trifluoromethyl)benzyl]-1H-indazol-5-yl}methylidene)-3-[trans-4-fluoro-1-methylpyrrolidin-3-yl]-1,3-thiazolidine-2,4-dione] | 21
O=C1S/C(=C\c2ccc3c(cnn3Cc3ccc(Cl)cc3C(F)(F)F)c2)C(=O)N1C[C@@H]1CN2CCC[C@H]2CO1 [Compound 203, (5Z)-5-({1-[4-Chloro-2-(trifluoromethyl)benzyl]-1H-indazol-5-yl}methylidene)-3-[(3S,8aS)-hexahydro-1H-pyrrolo[2,1-c] [1,4]oxazin-3-ylmethyl]-1,3-thiazolidine-2,4-dione] | 53
O=C1S/C(=C\c2ccc3c(cnn3Cc3ccc(Cl)cc3C(F)(F)F)c2)C(=O)N1CC1CNC1 [Compound 101, (5Z)-3-(Azetidin-3-ylmethyl)-5-({1-[4-chloro-2-(trifluoromethyl)benzyl]-1H-indazol-5-yl}methylidene)-1,3-thiazolidine-2,4-dione] | 68
O=C1S/C(=C\c2ccc3c(cnn3Cc3ccc(Cl)cc3C(F)(F)F)c2)C(=O)N1[C@@H]1CNC[C@@H]1F (relative stereo) [Compound 322, (5Z)-5-({1-[4-Chloro-2-(trifluoromethyl)benzyl]-1H-indazol-5-yl}methylidene)-3-[cis-4-fluoropyrrolidin-3-yl]-1,3-thiazolidine-2,4-dione] | 60
NN1C(=O)S/C(=C\c2ccc3c(cnn3Cc3ccc(Cl)cc3C(F)(F)F)c2)C1=O [Compound 355, (5Z)-3-Amino-5-({1-[4-chloro-2-(trifluoromethyl)benzyl]-1H-indazol-5-yl}methylidene)-1,3-thiazolidine-2,4-dione] | 20
